The values that follow are results of earlier work, collected in patent US9895325B2, “Tablet composition comprising cinacalcet hydrochloride” (SYNTHON B.V., priority 2012, dated 2018).

The conditions of the data set: pH 1.

Structures are written as SMILES.

For `C[C@@H](NCCCc1cccc(C(F)(F)F)c1)c1cccc2ccccc12.Cl` [Cinacalcet hydrochloride], the solubility result is “approx. 0.1 mg/ml”.
